From patent US8575116B1, “Polyacetylenic compounds for protecting against pancreatic islet atrophy” (Academia Sinica, priority 2010, dated 2013)

Tests used:
[1] = test system: STZ-treated C57BL mice; assay: Blood glucose in STZ-treated (β-cell-depleted) C57BL mice; format: in vivo, mouse; conditions: cytopiloyne oral 0.1, 0.5 and 2.5 mgkg^−1; insulin i.p. 2.5 IUkg^−1
Description: FIGS. 3A-C show cytopiloyne-mediated insulin release depends on pancreatic islet cells. (A) Rat pancreatic islet cells were incubated with glucose-free KRB buffer containing vehicle or cytopiloyne at 1.5, 3, 7, 14, 28 and 42 μM (FIG. 3A-i). Similarly, rat pancreatic islet cells were incubated with KRB buffer containing vehicle, glimepiride (GLM, 10 μM) or cytopiloyne at 1.5, 3, 7, 14, 28 and 42 μM in the presence of 3.3 mM glucose (LG, FIG. 3A-ii) or 16.7 mM glucose (HG, FIG. 3A-iii). The insulin levels were determined using an insulin ELISA kit. The data presented as mean±SEM of 3 independent experiments. (B) Fed C57BL mice, which had already received an injection of STZ, were administered with an oral dose of vehicle, cytopiloyne (CP, 0.1, 0.5 and 2.5 mgkg^−1), and an intraperitoneal injection of insulin (Ins, 2.5 IUkg^−1). Blood sugar levels in the STZ-treated mice were determined using a glucometer. […] Blood sugar levels in the STZ-treated mice were determined using a glucometer. All the results from 3 independent experiments are expressed as mean±SEM, and P<0.05 was considered to be statistically significant (*). […]
To deplete pancreatic β-cells in mice, 6-week-old C57BL females (NLAC, Taipei, Taiwan) were intraperitoneally injected with STZ at 200 mgkg^−1. […] Blood glucose levels were monitored for 4 h. […] Blood glucose levels in the mice were monitored from 0 to 4 h after insulin injection.

[2] = test system: human insulin promoter in HIT-T15 β-cells; assay: Insulin promoter (phINS-Luc) dual luciferase assay in HIT-T15 β-cells; format: cell-based, rat
Description: FIGS. 4A-C show an increase in insulin mRNA and protein content by cytopiloyne in pancreatic islet cells. (A) HIT-T15 β-cells transfected with phINS-Luc and pRL-TK plasmids were incubated with vehicle (NS), glimepiride (GLM, 10 μM), high glucose (HG, 16.7 mM) or cytopiloyne at 7, 14 or 28 μM. Ten μg of cell lysates from these cells underwent to dual luciferase assays. […] (C) Rat pancreatic islet cells were treated with vehicle, glucose (3.3 mM (LG) or 16.7 mM (HG)) or cytopiloyne (CP, 7, 14 and 28 μM) in the presence of brefeldin A for 24 h. After anti-insulin antibody staining, these cells underwent FACS analysis. The percentage of insulin-positive β-cells is shown. All the results from 3 independent experiments are expressed as mean±SEM, and P<0.05 was considered to be statistically significant (*).
(A) RIN-M5F cells were grown in medium with 16.7 mM (HG) or 3.3 mM glucose (LG) in the presence of PMA. GF and cytopiloyne. The insulin level of the supernatants was determined using an ELISA kit. (B) RIN-M5F cells were transfected with 5 μg of dominant-negative PKCα or control plasmid grown in medium with 16.7 mM (HG) or 3.3 mM glucose (LG) in the presence of PMA (1 μM), GF109203X (3 μM) or cytopiloyne. The insulin level of the supernatants was determined using an ELISA kit. (C) HIT-T15 cells were transfected with phINS-Luc and pRL-TK plasmids. The cells were grown in medium with 16.7 mM (HG) or 3.3 mM glucose (LG) in the absence or presence of PMA, GF109203X and cytopiloyne. The cell lysates were subjected to dual luciferase assays. (D) HIT-T15 cells were transfected with vehicle or dominant-negative PKCα plasmid together with phINS-Luc and pRL-TK plasmids. The cells were grown in medium with 16.7 mM (HG) or 3.3 mM glucose (LG) in the absence or presence of PMA and cytopiloyne. The cell lysates were subjected to dual luciferase assays.
Plasmids phINS-Luc and pRL-TK contain a human insulin promoter (2347 bp) from phINS-DCR3 vector linked to a firefly luciferase gene and the thymidine kinase promoter linked to Renilla luciferase reporter gene, respectively. Dominant-negative PKCα, phINS-Luc and/or pRL-TK were transfected into HIT-T15 cells with lipofectamine or electroporation.

[3] = test system: PKCα; assay: PKCα translocation and phosphorylation (Western blot) in RIN-m5F cells; format: cell-based, rat; conditions: PMA 1 μM, glucose 16.7 mM
Description: FIGS. 5A-D show the effects of cytopiloyne on calcium mobilization, DAG generation and PKCa activation. (A) After Fura 2-AM loading, RIN-m5F cells were stimulated with 16.7 mM glucose (HG) and cytopiloyne at 7, 14 and 28 μM. Level of intracellular calcium, as shown by the 340/380 nm ratio, was detected using a fluorescence spectrophotometer. (B) RIN-m5F cells were pulsed with ^3H-myristic acid (5 Cim1^−1) for 16 hours. After washing, the cells were stimulated with glucose, cytopiloyne, PMA and glimepiride. Total lipids were separated on a silica thin layer plate. DAG and cholesterol were visualized with iodine vapor and identified by their standards. (C) RIN-m5F cells were incubated with vehicle (Mock), cytopiloyne (CP, 3, 7 and 14 μM), PMA (1 μM) and 16.7 mM (HG). Membrane or cytosolic proteins were subjected to Western blot with anti-PKCα and anti-Actin antibodies. (D) RIN-m5F cells were incubated with vehicle (Mock), cytopiloyne (CP 7 μM) and PMA (1 μM). After lysis, total lystaes were subjected to Western blot with anti-PKCα, anti-phospho-PKCα and anti-Actin antibodies.

[4] = test system: 3T3-L1 cells; format: cell-based, mouse; conditions: differentiating 3T3-L1 cells; glimepiride 10 μM, rosiglitazone 1 μM, cytopiloyne 50 μM
[5] = test system: adipocyte protein 2 (aP2); assay: Real-time RT-PCR of aP2 mRNA relative to GAPDH in 3T3-L1 cells; format: cell-based, mouse

| Structure (SMILES) | reduction of hyperglycemia / blood glucose in β-cell-depleted mice [1] | insulin transcription (reporter), fold increase ([2]; 28 μM, HIT-T15 β-cells, 24 h) | insulin transcription in HIT-T15 cells ([2]; FIG. 6C, glucose 16.7 mM) | phosphorylation of PKCα ([3]; cytopiloyne 7 μM) | translocation of PKCα from cytoplasm to membrane ([3]; cytopiloyne 3, 7 and 14 μM) | lipid accumulation (lipid droplets, Oil red O) [4] | aP2 expression ([5]; 5, 25 and 50 μM, 3T3-L1 cells) | insulin transcription (reporter) compared to the control ([2]; 10 μM, HIT-T15 β-cells, 24 h) | aP2 expression, times of the control ([5]; mouse, 8 days, 10 μM) |
| --- | --- | --- | --- | --- | --- | --- | --- | --- | --- |
| CC#CC#CC#CC#CCCC(CO)O[C@@H]1O[C@H](CO)[C@@H](O)[C@H](O)[C@H]1O (stereo partly drawn) [cytopiloyne, 2-β-D-glucopyranosyloxy-1-hydroxytrideca-5,7,9,11-tetrayne] | lost its ability in regulating both responses | 5 times | stimulated insulin transcription | increased phosphorylation of PKCα | It was the case | same basal level of lipid droplets as the control | little effect on aP2 expression |  |  |
| CCC1=C(C)CN(C(=O)NCCc2ccc(S(=O)(=O)NC(=O)N[C@H]3CC[C@H](C)CC3)cc2)C1=O [glimepiride, reference compound] |  |  |  |  |  |  |  | no significant effect on insulin transcription | 31 times |
